Literature values in US20090155200A1, “Methods of promoting cartilage healing or cartilage integration” (priority 2004, published 2009).

System: articular cartilage defect
Conditions: pre-treatment with trypsin; Chen et al. 2000

trypsin
integration and remodeling of implanted cartilage: improved
